In brackets after ≈: the same amount, converted by molar mass. Entries after “also recorded” stand apart in the source; their conditions may differ.
Assays:
MTT cell viability assay = type: cell-based, human; details: human, HepG2 cells, 6 h, read-out: IC50 cytotoxicity
Method: (§1) HepG2 cells were cultured in 25 mL cell culture flasks using Eagle’s minimum essentials medium (EMEM) supplemented with 10% fetal bovine serum, 1% pen-strep-fungizone and 1% L-glutamine, maintained in a humidified incubator (37 °C, 5% CO2) until approximately 80% confluence.
(§2) The MTT assay was one of the methods used to determine in vitro cell viability of BP on HepG2 cells. HepG2 cells (15,000 cells/well) were seeded into a 96-well microtiter plate and allowed to adhere overnight (37 °C, 5% CO2). Thereafter, the cells were incubated (37 °C, 5% CO2) with a range of BP concentrations (0, 1, 8, 10, 50, 100 and 200 μg/mL) in triplicate for 6 h. After the 6 h incubation, the cells were washed with 0.1 M phosphate-buffered saline (PBS) and incubated with MTT salt solution (5 mg/mL in 0.1 M PBS) and 100 μL CCM for 4 h (37 °C, 5% CO2). The MTT salt solution was removed, and DMSO (100 μL/well) was added and incubated for 1 h. The optical density was measured using a spectrophotometer (Bio-Tek μQuant) at 570/690 nm. Results are expressed as % cell viability versus BP2 concentration (μg/mL).

HepG2 cells = assay: MTT cell viability assay; type: cell-based, human
Method: as §1, §2

[1] = biological target: T1, Recombinant human glyoxylase II (Glo2) (Homo sapiens, UniProt Q16775); assay: Non-specific binding to zinc in non-MBLs, glyoxylase II activity; type: biochemical; details: concentrations up to 500 µM
T1 construct: purchased BioVision Inc., Waltham, MA, USA
Source text: Metal chelators are known to suffer from off-target specificity and as a result have been criticized as potential MBLIs in vivo [44].
The methodology has been previously described. EDTA (purchased from Merck KGaA, Darmstadt, Germany) was included as a positive control.

[2] = system: Escherichia coli TC CARF (VIM-2); assay: MIC, broth microdilution and checkerboard assay; type: cell-based; details: read-out: MIC BP2 Alone
Method: (§3) The Minimum Inhibitory Concentration (MIC) of meropenem BP2 was determined utilizing the broth microdilution assay, as described by the Clinical and Laboratory Standards Institute (CLSI) antimicrobial susceptibility guidelines. The mono-therapeutic effect of each antibiotic and MBLI was evaluated across a panel of MBL-producing Enterobacterales.
(§4) The drug susceptibility profile of meropenem in combination with BP2 was studied using the checkerboard assay. This assay was used to ascertain the effect of two drugs on antimicrobial resistance targeting CRE strains. The assay was performed according to the protocol described previously and was under CLSI antimicrobial susceptibility guidelines. Briefly, twofold dilutions of meropenem with each chelator were made in Cation-adjusted Mueller Hinton Broth (CAMHB) in a 96-well microtiter plate. A 0.5 McFarland-standardized bacterial inoculum was added to each well to obtain a final volume of 100 µL per well. Thereafter, plates were incubated at 37 °C for 18 h under aerobic conditions. The checkerboard assays were performed in triplicate. The MIC was determined as the lowest concentration at which no visible growth was present. The fractional inhibitory concentration index (FICI) was calculated for each combination according to the equation FICI = FICa (MIC of drug A in combination/MIC of drug A alone) + FICb (MIC of drug B in combination/MIC of drug B alone). The FICI was interpreted as follows: synergy, FICI ≤ 0.5; additive 0.5–1; indifference, […] FICI < 4; and antagonism, FICI ≥ 4 [61].

[3] = system: Klebsiella pneumoniae USA 449 (NDM); assay: MIC, broth microdilution and checkerboard assay; type: cell-based; details: read-out: MIC BP2 Alone
Method: as §3, §4

K. pneumoniae NDM [4] = assay: Murine thigh infection model; type: in vivo, Klebsiella pneumoniae; details: neutropenic BALB/c mice, 100 mg/kg IP every 2 h
Method: A murine thigh infection model described by Michail et al. was performed with minor modifications. Male Bragg inbred albino c-strain (BALB/c) mice weighing 20–25 g (n = 90) were used in this study. Each of the three groups constituted n = 30 mice, with n = 6 mice receiving treatment every two hours. Prior to infection, mice were IP treated with 150 mg/kg cyclophosphamide on day one and 100 mg/kg on day four of the trial. This was performed to induce neutropenia in the mice. Neutropenia was confirmed by a neutrophil count of <100/mm^3. On day five of the trial, 0.1 mL inoculum containing 10^6–10^8 cfu/mL of K. pneumoniae NDM were IM injected into the right thigh of the mice to initiate infection. Meropenem monotherapy, BP2 + meropenem combination therapy, or normal saline was administered every two hours in an eight-hour treatment period. Mice were euthanized by isoflurane overdose at 2 h, 4 h, 6 h and 8 h post dosing. The right thigh muscle was then aseptically removed and homogenized in 5 mL PBS. Homogenates were spread onto Mueller–Hinton agar and MacConkey agar plates, followed by incubation at 35 °C for 24 h and enumeration of the cfu/mL.

K. pneumoniae NDM [5] = assay: Time-kill study; type: cell-based; details: meropenem monotherapy
Method: Time-kill studies were performed according to previously published methods, including those described by CLSI document M26-A [62]. Briefly, an overnight culture of K. pneumoniae NDM was diluted to a 0.5 McFarland standard that correlated to approximately […]. The prepared bacterial suspensions were added to 96-well plates containing a fixed dose of 32 mg/L of BP2 and meropenem in concentrations of 0.5, 1 or 2 mg/L. Plates were incubated at 35 °C and 100 rpm shaking. A bacterial control without adding any drugs was included, and a meropenem-only control employing similar conditions. Viability counts were performed at 0, 2, 4, 6, 8, and 24 h by sampling 0.1 mL, diluting as appropriate, and spreading onto Mueller Hinton agar (MHA). These plates were incubated at 35 °C for at least 18 h. Colonies were enumerated as cfu/mL.

[6] = system: Escherichia coli ATCC 25922; assay: MIC, broth microdilution and checkerboard assay; type: cell-based; details: ATCC25922, E. coli ATCC 25922, no MBL, alone, read-out: MIC MEM Alone
Method: as §3, §4

| SMILES | IC50 at 6 h (MTT cell viability assay) [µg/mL] | Cell viability compared to the control (HepG2 cells; 1 µg/mL and 10 µg/mL) | Cell viability compared to the control (HepG2 cells; 200 µg/mL) | Cell viability compared to the control (HepG2 cells; 50–100 µg/mL) | Glyoxylase II activity [1] | MIC [2] [µg/mL] | MIC [3] [µg/mL] | Best Log10 Cfu/ml (K. pneumoniae NDM [4]; treatment time 2 h) [Log10 Cfu/ml] | Mean Log10 Cfu/ml (K. pneumoniae NDM [4]; treatment time 2 h) [Log10 Cfu/ml] | Best Log10 Cfu/ml (K. pneumoniae NDM [4]; treatment time 4 h) [Log10 Cfu/ml] | Mean Log10 Cfu/ml (K. pneumoniae NDM [4]; treatment time 4 h) [Log10 Cfu/ml] | Best Log10 Cfu/ml (K. pneumoniae NDM [4]; treatment time 6 h) [Log10 Cfu/ml] | Mean Log10 Cfu/ml (K. pneumoniae NDM [4]; treatment time 6 h) [Log10 Cfu/ml] | Best Log10 Cfu/ml (K. pneumoniae NDM [4]; treatment time 8 h) [Log10 Cfu/ml] | Mean Log10 Cfu/ml (K. pneumoniae NDM [4]; treatment time 8 h) [Log10 Cfu/ml] | Increase in bacteria compared to the BP2 + meropenem-treated group (K. pneumoniae NDM [5]) [log10] | MIC [6] [µg/mL] |
| --- | --- | --- | --- | --- | --- | --- | --- | --- | --- | --- | --- | --- | --- | --- | --- | --- | --- |
| CON=C(C(=O)NC1C(=O)N2C(C(=O)O)=C(COC(C)=O)CSC12)c1csc(NC(=O)CC(C(=O)OC)N2CCN(CC(=O)O)CCN(CC(=O)O)CC2)n1 (stereo in doubt) [BP2] | 62 (≈ 76.3 µM) | significantly increased | significant decrease | not significantly altered | did not reduce the activity; also recorded: did not interact | > 256 | > 256 |  |  |  |  |  |  |  |  |  |  |
| C[C@@H](O)[C@H]1C(=O)N2C(C(=O)O)=C(S[C@@H]3CN[C@H](C(=O)N(C)C)C3)[C@H](C)[C@H]12 [Meropenem] |  |  |  |  |  |  |  | 7.2 | 6.8 | 8 | 8.3 | 8.3 | 8.4 | 8.3 | 8.2 | > 2 | 0.06 |
